ChEMBL document CHEMBL1201862, “PubChem BioAssay data set” (2004)
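The compound was tested at five concentrations on cells cultured in 96-well plates, with a 48-hour exposure period. Abbreviation: GI50, concentration required for 50% inhibition of growth.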 Calls of active or inactive are those of the source. No stated cut-off is given here; in the data, active = GI50 up to about 1.1 µM and inactive = higher.

Assays:
Experiment in all cases: NCI tumour cell line growth inhibition, 48 h
[1] = system: OVCAR-5
[2] = system: Malme-3M
[3] = system: KM12
[4] = system: RPMI-8226
[5] = system: TK-10
[6] = system: A498
[7] = system: HCT-116
[8] = system: HCT-15
[9] = system: SF-268
[10] = system: IGROV-1
[11] = system: CAKI-1
[12] = system: HOP-92
[13] = system: UACC-257
[14] = system: NCI-H522
[15] = system: SR
[16] = system: HL-60
[17] = system: MOLT-4
[18] = system: HOP-62

Structure (SMILES)	GI50 [1]	GI50 [2]	GI50 [3]	GI50 [4]	GI50 [5]	GI50 [6]	GI50 [7]	GI50 [8] [µM]	GI50 [9]	GI50 [10]	GI50 [11]	GI50 [12]	GI50 [13]	GI50 [14]	GI50 [15]	GI50 [16]	GI50 [17]	GI50 [18]
Cc1ccc(N)cc1.O=S(=O)(O)/C(=C\c1ccccc1)c1ccccc1	> 100 µM (inactive)	> 100 µM (inactive)	71.8 µM (inactive)	> 100 µM (inactive)	> 100 µM (inactive)	> 100 µM (inactive)	> 100 µM (inactive)	> 100	> 100 µM (inactive)	> 100 µM (inactive)	> 100 µM (inactive)	> 100 µM (inactive)	> 100 µM (inactive)	> 100 µM (inactive)	> 100 µM (inactive)	53.2 µM (inactive)	> 100 µM (inactive)	> 100 µM (inactive)
Cc1cc(-c2nc3cc(F)ccc3s2)ccc1NC(=O)C(C)N (stereo unspecified)	1 µM (active)	15.2 µM (inactive)	3.94 µM (inactive)	5.89 µM (inactive)	0.0501 µM (active)	3.77 µM (inactive)	3.29 µM (inactive)	2.65	4.53 µM (inactive)	0.0408 µM (active)	3.28 µM (inactive)	3.97 µM (inactive)	4.31 µM (inactive)	4.09 µM (inactive)	0.351 µM (active)	0.249 µM (active)	3.33 µM (inactive)	3.97 µM (inactive)
Clc1cc(Cl)cc(/N=C/C=C/Nc2cc(Cl)cc(Cl)c2)c1	21.6 µM (inactive)	30.5 µM (inactive)	16.2 µM (inactive)	24.5 µM (inactive)	29.9 µM (inactive)	21 µM (inactive)	15.5 µM (inactive)	14.9	18.9 µM (inactive)	22.6 µM (inactive)	15.2 µM (inactive)	30.8 µM (inactive)	33.7 µM (inactive)	14.7 µM (inactive)	31.8 µM (inactive)	19.1 µM (inactive)	19.8 µM (inactive)	23.7 µM (inactive)
CCOC(=O)/C1=C(\C)N(Cc2ccccc2)C(=O)c2ccccc2C(=O)c2c(OC(C)=O)ccc(OC(C)=O)c21	41.7 µM (inactive)	69.8 µM (inactive)	47 µM (inactive)	18.9 µM (inactive)	58.3 µM (inactive)	> 100 µM (inactive)	–	69.3	43.6 µM (inactive)	21.9 µM (inactive)	72.3 µM (inactive)	12.7 µM (inactive)	61.9 µM (inactive)	34.9 µM (inactive)	20.5 µM (inactive)	29.9 µM (inactive)	59.7 µM (inactive)	40.6 µM (inactive)
CCc1cc2c(c3c1CCCC3=O)CC1(C2)Cc2cc(CC)c3c(c2C1)C(=O)CCC3	> 100 µM (inactive)	25.3 µM (inactive)	47.2 µM (inactive)	46.9 µM (inactive)	> 100 µM (inactive)	> 100 µM (inactive)	61.1 µM (inactive)	> 100	> 100 µM (inactive)	> 100 µM (inactive)	89.5 µM (inactive)	57.9 µM (inactive)	57.4 µM (inactive)	62.8 µM (inactive)	24.1 µM (inactive)	61 µM (inactive)	35.2 µM (inactive)	> 100 µM (inactive)
O=C1C(Cl)=C(N2CCC[C@@H]2CO)C(=O)c2c(O)ccc(O)c21	1.69 µM (inactive)	1.64 µM (inactive)	1.75 µM (inactive)	0.395 µM (active)	1.88 µM (inactive)	2.9 µM (inactive)	1.44 µM (inactive)	1.87	1.29 µM (inactive)	1.79 µM (inactive)	1.58 µM (inactive)	1.66 µM (inactive)	1.76 µM (inactive)	1.12 µM (active)	2.18 µM (inactive)	0.485 µM (active)	0.269 µM (active)	1.58 µM (inactive)
O=C(COC(c1ccc(F)cc1)c1ccc(F)cc1)N1CCN(CCCc2ccccc2)CC1	4.15 µM (inactive)	4.68 µM (inactive)	4.06 µM (inactive)	3.39 µM (inactive)	5.35 µM (inactive)	3.08 µM (inactive)	2.88 µM (inactive)	3.75	3.88 µM (inactive)	5.37 µM (inactive)	2.05 µM (inactive)	2.55 µM (inactive)	3.38 µM (inactive)	4.4 µM (inactive)	3.54 µM (inactive)	3.31 µM (inactive)	4.66 µM (inactive)	6.52 µM (inactive)
CC12CP(=O)(O)CC1C2(Cl)Cl (stereo unspecified)	> 100 µM (inactive)	> 100 µM (inactive)	> 100 µM (inactive)	> 100 µM (inactive)	> 100 µM (inactive)	> 100 µM (inactive)	> 100 µM (inactive)	> 100	> 100 µM (inactive)	> 100 µM (inactive)	> 100 µM (inactive)	> 100 µM (inactive)	> 100 µM (inactive)	> 100 µM (inactive)	> 100 µM (inactive)	> 100 µM (inactive)	> 100 µM (inactive)	> 100 µM (inactive)
C[N+](C)(N)Cc1nc(-c2ccc(Cl)cc2)no1	> 100 µM (inactive)	> 100 µM (inactive)	> 100 µM (inactive)	52.8 µM (inactive)	> 100 µM (inactive)	70 µM (inactive)	> 100 µM (inactive)	> 100	–	> 100 µM (inactive)	> 100 µM (inactive)	> 100 µM (inactive)	> 100 µM (inactive)	> 100 µM (inactive)	26.8 µM (inactive)	> 100 µM (inactive)	20.8 µM (inactive)	88.9 µM (inactive)
O=C(O)[C@@H]1C[C@@H](O)CN1C(=O)OCc1ccccc1	> 100 µM (inactive)	> 100 µM (inactive)	> 100 µM (inactive)	> 100 µM (inactive)	> 100 µM (inactive)	> 100 µM (inactive)	> 100 µM (inactive)	> 100	> 100 µM (inactive)	> 100 µM (inactive)	> 100 µM (inactive)	> 100 µM (inactive)	> 100 µM (inactive)	> 100 µM (inactive)	> 100 µM (inactive)	> 100 µM (inactive)	> 100 µM (inactive)	> 100 µM (inactive)
COc1ccc(OC)c(CSc2ccc(OC)c(OC)c2)c1	> 100 µM (inactive)	> 100 µM (inactive)	> 100 µM (inactive)	> 84.7 µM (inactive)	> 100 µM (inactive)	38.8 µM (inactive)	> 86.9 µM (inactive)	> 73.8	> 100 µM (inactive)	99.1 µM (inactive)	> 100 µM (inactive)	> 52.2 µM (inactive)	> 83.4 µM (inactive)	> 90.2 µM (inactive)	> 100 µM (inactive)	> 50.5 µM (inactive)	43.2 µM (inactive)	> 100 µM (inactive)
COC(=O)c1cccc(C)c1C1CN=NC12Cc1cc(C)cc(C)c1C2=O (stereo unspecified)	> 100 µM (inactive)	32.2 µM (inactive)	34.4 µM (inactive)	33.5 µM (inactive)	> 100 µM (inactive)	51.5 µM (inactive)	22.8 µM (inactive)	51.1	39.8 µM (inactive)	52.5 µM (inactive)	78.2 µM (inactive)	47.8 µM (inactive)	> 100 µM (inactive)	31.3 µM (inactive)	39 µM (inactive)	17.9 µM (inactive)	27 µM (inactive)	53 µM (inactive)
COC(=O)NC(Nc1ccc(Cl)cc1Cl)(C(F)(F)F)C(F)(F)F	> 100 µM (inactive)	> 100 µM (inactive)	14 µM (inactive)	31.7 µM (inactive)	92.7 µM (inactive)	33.2 µM (inactive)	64.7 µM (inactive)	4.38	60.4 µM (inactive)	61.7 µM (inactive)	24.5 µM (inactive)	73.3 µM (inactive)	> 100 µM (inactive)	37.1 µM (inactive)	5.31 µM (inactive)	29.3 µM (inactive)	37.8 µM (inactive)	> 100 µM (inactive)
Cc1ccc([N+](=O)[O-])cc1S(=O)(=O)Nc1ccc(C2=NN(S(=O)(=O)c3cc([N+](=O)[O-])ccc3C)C(c3ccccc3O)C2)cc1 (stereo unspecified)	> 100 µM (inactive)	> 100 µM (inactive)	> 100 µM (inactive)	51.1 µM (inactive)	52.5 µM (inactive)	10.4 µM (inactive)	> 100 µM (inactive)	> 100	26.5 µM (inactive)	98.9 µM (inactive)	> 100 µM (inactive)	49.9 µM (inactive)	> 100 µM (inactive)	44 µM (inactive)	> 100 µM (inactive)	> 100 µM (inactive)	26.7 µM (inactive)	47.5 µM (inactive)
N#Cc1c(Cl)cccc1Oc1ccc(S(=O)(=O)N/C(=N\O)Nc2ccc(Cl)cc2)cc1	19.3 µM (inactive)	19.2 µM (inactive)	17.2 µM (inactive)	30.4 µM (inactive)	16.6 µM (inactive)	15.3 µM (inactive)	14.2 µM (inactive)	17.3	19.9 µM (inactive)	16.3 µM (inactive)	15.5 µM (inactive)	11 µM (inactive)	16.9 µM (inactive)	18 µM (inactive)	23.9 µM (inactive)	12.1 µM (inactive)	18.4 µM (inactive)	17.5 µM (inactive)
O=C(CCCCCCC(=O)Nc1cccnc1)NO [PYROXAMIDE]	4.14 µM (inactive)	0.902 µM (active)	2.93 µM (inactive)	3.14 µM (inactive)	7.11 µM (inactive)	11 µM (inactive)	3.54 µM (inactive)	34.4	4.26 µM (inactive)	14.7 µM (inactive)	16.6 µM (inactive)	12.8 µM (inactive)	4.75 µM (inactive)	1.26 µM (inactive)	> 100 µM (inactive)	10.2 µM (inactive)	2.2 µM (inactive)	7.16 µM (inactive)
